# Laboratory results: patent US20240376163A1, “PEPTIDE FOR INHIBITING CALCINEURIN AND USE THEREOF” (Seoul National University R&DB Foundation, priority 2023, published 2024)
# System: Jurkat T cells
# Experiment: mRNA sequencing of activated Jurkat T cells
# Format: cell-based, human
# Conditions: Jurkat T cells, P + I
sequence,measurement,value
PEITVTPPTP [CABIN1-L-1-2],ABTB2 FPKM,6.382 FPKM
same,ACAP1 FPKM,26.535 FPKM
same,ACSF3 FPKM,15.621 FPKM
same,ADA FPKM,73.254 FPKM
same,ADAMTS17 FPKM,0.882 FPKM
same,ADCYAP1 FPKM,3.219 FPKM
same,ADORA2A FPKM,1.475 FPKM
same,AFF2 FPKM,3.175 FPKM
same,AGK FPKM,14.306 FPKM
same,ALDH1A2 FPKM,6.66 FPKM
same,ALOX5AP FPKM,39.735 FPKM
same,ANKEF1 FPKM,2.575 FPKM
same,ANO8 FPKM,2.721 FPKM
same,ANTXR2 FPKM,55.18 FPKM
same,APH1B FPKM,4.206 FPKM
same,APOBEC3B-AS1 FPKM,20.386 FPKM
same,APOBEC3F FPKM,7.066 FPKM
same,APOBEC3G FPKM,9.231 FPKM
same,APOL1 FPKM,4.498 FPKM
same,ARHGAP4 FPKM,16.216 FPKM
same,ARHGAP25 FPKM,2.157 FPKM
same,ARHGAP31 FPKM,11.177 FPKM
same,ARHGEF3 FPKM,8.674 FPKM
same,ARPP21 FPKM,0.7 FPKM
same,ASB13 FPKM,2.543 FPKM
same,ASNS FPKM,19.026 FPKM
same,ATHL1 FPKM,6.014 FPKM
same,ATP2A3 FPKM,36.996 FPKM
same,ATP6V0A4 FPKM,18.558 FPKM
same,ATP6V1B2 FPKM,60.661 FPKM
same,ATPAF1 FPKM,10.283 FPKM
same,AVPR2 FPKM,1.492 FPKM
same,B2M FPKM,1302.512 FPKM
same,BAHCC1 FPKM,0.873 FPKM
same,BCL2A1 FPKM,51.928 FPKM
same,BCL2L1 FPKM,41.852 FPKM
same,BCL3 FPKM,17.15 FPKM
same,BCL6 FPKM,15.55 FPKM
same,BCL7A FPKM,12.277 FPKM
same,BCL11B FPKM,3.353 FPKM
same,BEND6 FPKM,1.409 FPKM
same,BIN1 FPKM,1.968 FPKM
same,BIRC3 FPKM,58.303 FPKM
same,C10orf55 FPKM,15.779 FPKM
same,C11orf74 FPKM,0.392 FPKM
same,C21orf58 FPKM,6.073 FPKM
same,CABP1 FPKM,1.689 FPKM
same,CAMK2D FPKM,6.138 FPKM
same,CARHSP1 FPKM,14.562 FPKM
same,CBFA2T3 FPKM,11.821 FPKM
same,CBLB FPKM,7.757 FPKM
same,CBS FPKM,3.916 FPKM
same,CBX2 FPKM,2.454 FPKM
same,CCDC15 FPKM,2.926 FPKM
same,CCL3 FPKM,0.502 FPKM
same,CCL3L3 FPKM,0.079 FPKM
same,CCL20 FPKM,1.279 FPKM
same,CCND3 FPKM,25.396 FPKM
same,CCNE2 FPKM,5.206 FPKM
same,CD1B FPKM,4.733 FPKM
same,CD1E FPKM,3.521 FPKM
same,CD70 FPKM,7.606 FPKM
same,CD82 FPKM,222.109 FPKM
same,CD97 FPKM,21.496 FPKM
same,CD200 FPKM,0.094 FPKM
same,CD274 FPKM,15.92 FPKM
same,CDKN1A FPKM,62.513 FPKM
same,CDKN2D FPKM,16.801 FPKM
same,CECR1 FPKM,3.984 FPKM
same,CENPM FPKM,14.415 FPKM
same,CEP70 FPKM,12.745 FPKM
same,CERKL FPKM,10.348 FPKM
same,CFLAR FPKM,3.022 FPKM
same,CHEK2 FPKM,7.751 FPKM
same,CHPF2 FPKM,34.939 FPKM
same,CHPF FPKM,12.714 FPKM
same,CHRNA3 FPKM,3.499 FPKM
same,CHST12 FPKM,12.639 FPKM
same,CNN2 FPKM,18.455 FPKM
same,COL27A1 FPKM,5.729 FPKM
same,CPD FPKM,26.602 FPKM
same,CREB3L2 FPKM,5.857 FPKM
same,CREB5 FPKM,1.966 FPKM
same,CSF1 FPKM,2.594 FPKM
same,CSF2 FPKM,0.314 FPKM
same,CXCL8 FPKM,3.327 FPKM
same,CXCL11 FPKM,3.793 FPKM
same,CXCR4 FPKM,34.014 FPKM
same,CYTH1 FPKM,30.15 FPKM
same,DBP FPKM,1.773 FPKM
same,DCBLD2 FPKM,15.588 FPKM
same,DENND5A FPKM,37.896 FPKM
same,DNAJB5 FPKM,19.35 FPKM
same,DSTYK FPKM,3.595 FPKM
same,DTL FPKM,5.275 FPKM
same,DTX1 FPKM,3.245 FPKM
same,DUSP6 FPKM,12.914 FPKM
same,DUSP10 FPKM,12.142 FPKM
same,E2F7 FPKM,4.018 FPKM
same,ECE1 FPKM,59.384 FPKM
same,EFHD2 FPKM,234.38 FPKM
same,EGR1 FPKM,123.294 FPKM
same,EGR2 FPKM,9 FPKM
same,EHBP1L1 FPKM,5.023 FPKM
same,EMP1 FPKM,4.589 FPKM
same,ETS1 FPKM,38.627 FPKM
same,FADS2 FPKM,48.612 FPKM
same,FAM64A FPKM,6.008 FPKM
same,FAT1 FPKM,11.964 FPKM
same,FBLN2 FPKM,3.01 FPKM
same,FKBP5 FPKM,7.791 FPKM
same,FLI1 FPKM,10.752 FPKM
same,FOSL1 FPKM,12.705 FPKM
same,FOSL2 FPKM,2.362 FPKM
same,FXYD5 FPKM,42.856 FPKM
same,FYN FPKM,15.512 FPKM
same,GAD1 FPKM,2.238 FPKM
same,GFOD1 FPKM,6.312 FPKM
same,GFRA1 FPKM,0.76 FPKM
same,GKAP1 FPKM,2.927 FPKM
same,GLRB FPKM,1.354 FPKM
same,GLRX FPKM,21.013 FPKM
same,GNG4 FPKM,7.415 FPKM
same,GPC2 FPKM,4.85 FPKM
same,GPR17 FPKM,0.181 FPKM
same,GPR68 FPKM,11.224 FPKM
same,GSE1 FPKM,14.556 FPKM
same,GTDC1 FPKM,5.144 FPKM
same,GXYLT2 FPKM,4.24 FPKM
same,GZMB FPKM,909.046 FPKM
same,HCAR1 FPKM,7.943 FPKM
same,HIVEP3 FPKM,20.545 FPKM
same,HLA-A FPKM,226.558 FPKM
same,HLA-B FPKM,160.359 FPKM
same,HPGD FPKM,3.392 FPKM
same,IFIT3 FPKM,6.682 FPKM
same,IKZF2 FPKM,8.132 FPKM
same,IL2 FPKM,12.964 FPKM
same,IL4R FPKM,12.536 FPKM
same,IL10RA FPKM,3.208 FPKM
same,IL15 FPKM,3.16 FPKM
same,IL15RA FPKM,7.481 FPKM
same,IL21R FPKM,5.255 FPKM
same,IL21R-AS1 FPKM,3.991 FPKM
same,IL27RA FPKM,10.764 FPKM
same,IQCJ-SCHIP1 FPKM,1.234 FPKM
same,IQGAP2 FPKM,3.477 FPKM
same,IRF1 FPKM,152.425 FPKM
same,IRF2 FPKM,34.829 FPKM
same,IRF4 FPKM,2.092 FPKM
same,IRF7 FPKM,21.372 FPKM
same,ITGA4 FPKM,31.73 FPKM
same,ITGAL FPKM,7.674 FPKM
same,ITK FPKM,62.324 FPKM
same,JAK2 FPKM,8.45 FPKM
same,KCNK1 FPKM,13.139 FPKM
same,KIAA0101 FPKM,16.766 FPKM
same,KIAA0247 FPKM,8.83 FPKM
same,KIR3DX1 FPKM,3.992 FPKM
same,KLF10 FPKM,15.364 FPKM
same,KLF12 FPKM,4.377 FPKM
same,KREMEN1 FPKM,2.958 FPKM
same,LAIR1 FPKM,7.19 FPKM
same,LDLRAD4 FPKM,4.769 FPKM
same,LEF1-AS1 FPKM,2.388 FPKM
same,LEF1 FPKM,48.109 FPKM
same,LGMN FPKM,1.976 FPKM
same,LIF FPKM,0.231 FPKM
same,LIMS2 FPKM,4.304 FPKM
same,LINC00659 FPKM,9.828 FPKM
same,LINC01260 FPKM,7.215 FPKM
same,LMNA FPKM,2.786 FPKM
same,LMO1 FPKM,0.954 FPKM
same,LOC653712 FPKM,2.808 FPKM
same,LOC100506688 FPKM,1.704 FPKM
same,LOC101926963 FPKM,4.742 FPKM
same,LOC101927497 FPKM,10.444 FPKM
same,LPAR6 FPKM,4.344 FPKM
same,LRRC8C FPKM,11.753 FPKM
same,LRRC20 FPKM,2.839 FPKM
same,LTBP4 FPKM,9.568 FPKM
same,LUCATI FPKM,9.183 FPKM
same,MAFF FPKM,16.464 FPKM
same,MAGEA4 FPKM,3.775 FPKM
same,MAL FPKM,2.026 FPKM
same,MAMLD1 FPKM,9.949 FPKM
same,MAP3K7CL FPKM,2.03 FPKM
same,MAST4 FPKM,5.841 FPKM
same,MAZ FPKM,99.474 FPKM
same,MCM2 FPKM,23.634 FPKM
same,MCTP2 FPKM,3.187 FPKM
same,METRN FPKM,1.604 FPKM
same,MFAP4 FPKM,0.663 FPKM
same,MGAT4A FPKM,8.882 FPKM
same,MICAL2 FPKM,1.84 FPKM
same,MIR22HG FPKM,8.63 FPKM
same,MIR3652 FPKM,567.901 FPKM
same,MIR6775 FPKM,21.57 FPKM
same,MIR6821 FPKM,25.116 FPKM
